Assays:
Type in all cases: in vivo
Chenopodium album = assay: Test Example 4: herbicidal effect by application to foliage (diluvial soil, plastic box); settings: application to foliage, application herbicide amount 320 g/ha
Outline: (§1)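 Seeds sown in sterilized diluvial soil, covered ~1.5 cm, grown 14 days in greenhouse at 25° C. to 30° C. Emulsion formulation diluted in water to set rate (g/ha) and sprayed onto stems and leaves. Effect scored visually 3 weeks later on 0–5 scale (5 = ≥90% herbicidal ratio, 0 = ≤5%).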

Avena fatua = assay: as above; settings: application to foliage, application herbicide amount 320 g/ha
Outline: as §1

Digitaria ciliaris = assay: as above; settings: application to foliage, application herbicide amount 320 g/ha
Outline: as §1

Abutilon theophrasti = assay: as above; settings: application to foliage, application herbicide amount 320 g/ha
Outline: as §1

[1] = test system: Echinochloa crus-galli var. crus-galli; assay: as above; settings: application to foliage, application herbicide amount 320 g/ha
Outline: as §1

Amaranthus retroflexus = assay: as above; settings: application to foliage, application herbicide amount 320 g/ha
Outline: as §1

Lolium multiflorum Lam. = assay: as above; settings: application to foliage, application herbicide amount 320 g/ha
Outline: as §1

Alopecurus myosuroides = assay: as above; settings: application to foliage, application herbicide amount 320 g/ha
Outline: as §1

Galium spurium = assay: as above; settings: application to foliage, application herbicide amount 320 g/ha
Outline: as §1

Setaria viridis = assay: as above; settings: application to foliage, application herbicide amount 320 g/ha
Outline: as §1

Stellaria media = assay: as above; settings: application to foliage, application herbicide amount 320 g/ha
Outline: as §1

Veronica persica = assay: as above; settings: application to foliage, application herbicide amount 320 g/ha
Outline: as §1

Apera spica-venti. = assay: as above; settings: application to foliage, application herbicide amount 320 g/ha
Outline: as §1

[2] = test system: transplanted Oryza sativa; assay: Test Example 1: effect on crop, application before weed generation in submerged conditions; settings: Application herbicide amount 320 g/ha; Seventeenth Table
Outline: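 Pre-emergence water-surface application under 4 cm flooding, same day as sowing, with rice transplanted at 2.5 leaf stage. Dose given as g/ha. Plants grown at 25° C. to 30° C. and rated three weeks later on a 0 (≤5%) to 5 (≥90%) herbicidal-ratio scale.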

Triticum aestivum = assay: Test Example 4: effect on crop by application to foliage (diluvial soil, plastic box); settings: application to foliage, application herbicide amount 320 g/ha
Outline: as §1

Zea mays = assay: as above; settings: application to foliage, application herbicide amount 320 g/ha
Outline: as §1

[3] = test system: Beta vulgaris ssp. vulgaris; assay: as above; settings: application to foliage, application herbicide amount 320 g/ha
Outline: as §1

Glycine max = assay: as above; settings: application to foliage, application herbicide amount 320 g/ha
Outline: as §1

[4] = test system: directly sowed Oryza sativa; assay: as above; settings: application to foliage, application herbicide amount 320 g/ha
Outline: as §1

Brassica campestris L. = assay: as above; settings: application to foliage, application herbicide amount 320 g/ha
Outline: as §1

SMILES	O: herbicidal effect on Chenopodium album (Chenopodium album)	I: herbicidal effect on Avena fatua (Avena fatua)	F: herbicidal effect on Digitaria ciliaris (Digitaria ciliaris)	M: herbicidal effect on Abutilon theophrasti (Abutilon theophrasti)	H: herbicidal effect on Echinochloa crus-galli var. crus-galli [1]	N: herbicidal effect on Amaranthus retroflexus (Amaranthus retroflexus)	K: herbicidal effect on Lolium multiflorum Lam. (Lolium multiflorum Lam.)	J: herbicidal effect on Alopecurus myosuroides (Alopecurus myosuroides)	Q: herbicidal effect on Galium spurium (Galium spurium)	G: herbicidal effect on Setaria viridis (Setaria viridis)	P: herbicidal effect on Stellaria media (Stellaria media)	R: herbicidal effect on Veronica persica (Veronica persica)	L: herbicidal effect on Apera spica-venti. (Apera spica-venti.)	a: transplanted Oryza sativa (effect on crop grade) [2]	e: effect on crop, Triticum aestivum (Triticum aestivum)	c: effect on crop, Zea mays (Zea mays)	f: effect on crop, Beta vulgaris ssp. vulgaris [3]	d: effect on crop, Glycine max (Glycine max)	b: effect on crop, directly sowed Oryza sativa [4]	g: effect on crop, Brassica campestris L. (Brassica campestris L.)
CCOCc1nnc2c(C(=O)Nc3nnnn3C)ccc(C(F)(F)F)n12 [2-026]	5 (Herbicidal ratio of 90% or more (almost completely withered))	3 (Herbicidal ratio of 40% or more and less than 70%)	5 (Herbicidal ratio of 90% or more (almost completely withered))	5 (Herbicidal ratio of 90% or more (almost completely withered))	5 (Herbicidal ratio of 90% or more (almost completely withered))	5 (Herbicidal ratio of 90% or more (almost completely withered))	3 (Herbicidal ratio of 40% or more and less than 70%)	4 (Herbicidal ratio of 70% or more and less than 90%)	4 (Herbicidal ratio of 70% or more and less than 90%)	4 (Herbicidal ratio of 70% or more and less than 90%)	5 (Herbicidal ratio of 90% or more (almost completely withered))	5 (Herbicidal ratio of 90% or more (almost completely withered))	3 (Herbicidal ratio of 40% or more and less than 70%)	4 (Herbicidal ratio of 70% or more and less than 90%)	3 (Herbicidal ratio of 40% or more and less than 70%)	2 (Herbicidal ratio of 20% or more and less than 40%)	5 (Herbicidal ratio of 90% or more (almost completely withered))	5 (Herbicidal ratio of 90% or more (almost completely withered))	5 (Herbicidal ratio of 90% or more (almost completely withered))	5 (Herbicidal ratio of 90% or more (almost completely withered))
Cn1nnnc1NC(=O)c1ccc(C(F)(F)F)n2c(C(C)(C)C)nnc12 [2-027]	5 (Herbicidal ratio of 90% or more (almost completely withered))	3 (Herbicidal ratio of 40% or more and less than 70%)	5 (Herbicidal ratio of 90% or more (almost completely withered))	5 (Herbicidal ratio of 90% or more (almost completely withered))	5 (Herbicidal ratio of 90% or more (almost completely withered))	5 (Herbicidal ratio of 90% or more (almost completely withered))	3 (Herbicidal ratio of 40% or more and less than 70%)	4 (Herbicidal ratio of 70% or more and less than 90%)	4 (Herbicidal ratio of 70% or more and less than 90%)	5 (Herbicidal ratio of 90% or more (almost completely withered))	5 (Herbicidal ratio of 90% or more (almost completely withered))	5 (Herbicidal ratio of 90% or more (almost completely withered))	4 (Herbicidal ratio of 70% or more and less than 90%)	4 (Herbicidal ratio of 70% or more and less than 90%)	3 (Herbicidal ratio of 40% or more and less than 70%)	0 (Herbicidal ratio of 5% or less (almost no effect))	5 (Herbicidal ratio of 90% or more (almost completely withered))	1 (Herbicidal ratio of 5% or more and less than 20%)	4 (Herbicidal ratio of 70% or more and less than 90%)	4 (Herbicidal ratio of 70% or more and less than 90%)

From patent publication US9708314B2, “Heterocyclic amide compound” (NISSAN CHEMICAL INDUSTRIES, LTD., priority 2013, dated 2017)
